The text below walks through data of publication PMC4838876, “Multivalent display of minimal Clostridium difficile glycan epitopes mimics antigenic properties of larger glycans” (Nature Communications, 2016).

The assay has as its system mAb 10A1. As to the kind of experiment: STD-NMR epitope mapping. In kind it is binding, mouse. Conditions: 200 μM ligand, 2 μM antibody. The text has this: To understand antibody binding at molecular-level detail and to identify the functional groups involved in antibody binding, we performed STD-NMR measurements. […] The glucose moiety in 3 contributed weakly to antibody binding around H3 (11%). Despite the low saturation transfer, this interaction appears to be important for antibody binding, as mono-rhamnose 4 was not or only weakly bound by the mAbs in glycan microarray and SPR experiments.
Figure 6 Epitope mapping of glycan–mAb interactions by STD-NMR. (a,b) Recognition of disaccharide 3 by mAb 10A1 shown as Lewis structure and three-dimensional model calculated with Glycam[70]. Colours indicate percentages of STD effects. (c) Recognition patterns of 3 by three mAbs. STD spectra were acquired at 2 s saturation transfer time in the presence of mAbs 2C5, 10A1 and 10D6 (from top to bottom). (d) Competition of trisaccharide 2 by pentasaccharide 1.
Before the STD-NMR studies, proton resonances of oligosaccharides 1–3 were assigned using standard one-dimensional proton spectra, as well as 2D total correlation spectroscopy (2D-TOCSY), correlation spectroscopy, ^1H–^13C heteronuclear single quantum coherence and ^1H–^13C heteronuclear multiple bond correlation spectra at concentrations varying between 5 and 20 mM in D2O. All NMR studies were measured at 298 K on a Varian PremiumCOMPACT 600 MHz spectrometer equipped with a OneNMR probe. For STD-NMR, samples contained 200 μM ligand and 2 μM antibody in 40 mM phosphate buffer (pH 7.0, uncorrected). On-resonance irradiation was set to −0.5 p.p.m. and off-resonance irradiation was set to 80 p.p.m. A 35-ms T1ρ spin-lock filter and a W5 WATERGATE for solvent suppression were applied. The saturation pulse train consisted of a series of Gaussian shaped pulses of 50 ms duration and 1 ms interpulse delay with an irradiation power of 85 Hz. A total of 2,048 scans were recorded. STD-NMR spectra of carbohydrates in the absence of antibody and spectra of antibody only served as negative controls. Here, saturation and relaxation times were set to 2 and 6 s, respectively. STD build-up curves for mAb 10A1 were recorded at saturation transfer times of 0.5, 1, 2, 4 and 6 s, adjusting the prescan delay accordingly. Epitopes for mAbs 2C5 and 10D6 were recorded with a saturation transfer time of 2 s. NMR spectra were processed in MestReNova 9.1 (MestreLab) and data were analysed in OriginPro9 (OriginLab) to obtain the binding epitopes according to Mayer and James[28]. For the competition experiments, 1 was added to samples of 3 or 2 to a final concentration of 200 μM applying a saturation transfer time of 2 s.

Take `C[C@@H]1O[C@@H](O[C@@H]2[C@@H](O)[C@H](OCCCCCN)O[C@H](CO)[C@H]2O)[C@H](O)[C@H](O)[C@H]1O` [Compound 3, Rha-(1→3)-Glc]: the “normalized STD effect, glucose H3” value is reported as 11%; the “normalized STD effect, rhamnose H2” value came out at 78%; the “normalized STD effect, rhamnose H3” value is 99%; the “normalized STD effect, rhamnose methyl protons H6, H'6 and H''6” value turned out to be 100%.
